According to PubChem BioAssay AID1963426 (Molecular Pharmacology Branch, DTP, NCI, 2024):
Several values for one entry are separate records, joined by “and”; a condition that tells them apart may be missing. Equal entries are not always repeated.

System: 186277-243-T-J2-PDC complex spheroid growth, % test/control
Assay: Anticancer human tumor 186277-243-T-J2-PDC patient-derived colon adenocarcinoma cell line growth inhibition [Asc]
Details: for viability, T/C: stronger effect = lower value
Experimental: Multicellular complex tumor spheroid response to apoptosis pathway targeting inhibitors Alrizomadlin, Pelcitoclax, and Dasminapant in combination with a variety of drugs and investigational agents in selected tumor cell lines
The MDM2 inhibitor alrizomadlin, the Bcl-2/Bcl-xL inhibitor pelcitoclax, and the IAPs inhibitor dasminapant were evaluated both individually and in combination with standard of care and investigational anticancer small molecules within a complex spheroid model of solid tumors. . Complex spheroids include a stromal component modeled by human endothelial cells (HUVEC) and fibroblasts modeled by human mesenchymal stem cells (MSCs). The concentration ranges selected for each drug and investigational agent were based upon clinically achievable concentrations if the clinical Cmax of the agent was known.
Compounds. The drugs and investigational agents: alrizomadlin (APG-115; NSC831270), pelcitoclax (APG-1252; NSC835773), dasminapant (APG-1387;NSC834197), TAK-243 (NSC785004), copanlisib (NSC809693), olaparib (NSC753686), talazoparib (NSC767125), cobimetinib (NSC 768068), eltanexor (KPT-8602, NSC 794443), abemaciclib (NSC 768073), sotorasib (NSC818433), adagrasib (NSC 831453), MRTX-1133 (NSC 836407), Iadademestat (ORY1001, NSC 806812), and RMC-4630 (NSC839698), were obtained from the NCI Developmental Therapeutics Program Chemical Repository. The FDA-approved anticancer drug set is available from the Developmental Therapeutics Program at https://dtp.cancer.gov/organization/dscb/obtaining/available plates.htm. […] The stock solutions were prepared in dimethyl sulfoxide (DMSO, Sigma-Aldrich, St. Louis, MO, cat. D2650) at 800-fold the tested concentration and stored at -70 degrees C prior to their use. All drugs and investigational agents were tested over a range starting from a high concentration at or near the clinical Cmax and decreasing in half-log increments. If the clinical Cmax for an agent had not been determined, the highest concentration tested was 10 microM.
The patient-derived cancer (PDC) cell lines include five colon adenocarcinomas: 186277-243-T-J2-PDC, 616215-338-R-J1-PDC, 439559-082-T-J2-PDC, 463943-066-T-J2-PDC, and 519858-162-T-J1-PDC; three pancreatic carcinomas: 323965-272-R-J2-PDC, 521955-158-R6-J3-PDC, and 521955-158-R2-J5-PDC; two uterine sarcomas: 327498-152-R-J2-PDC and 993429-296-R-J1-PDC; two rhabdomyosarcomas: 755483-174-R-J1-PDC and 772245-204-R-J1-PDC; two soft tissue sarcomas: 126254-015-R-J1-PDC and 494315-158-R-J1-PDC; two malignant fibrous histiocytomas: 317291-083-R-J1-PDC and 596521-263-R-J1-PDC; two breast carcinomas: 171881-019-R-J1-PDC and 885512-296-R-J2-PDC; and one ovarian carcinoma: 6556581-035-R-J-PDC were obtained from the NCI PDMR, (https://pdmr.cancer.gov). The established cell lines HSSY-2 synovial sarcoma (RRID:CVCL 8719), SYO-1 synovial sarcoma (RRID:CVCL_7146), MPNST malignant peripheral neural sheath tumor were obtained from the Sloan Kettering Institute. The following established cell lines were purchased from the American Type Culture Collection (ATCC, Manassas, VA), Sor the received from the NCI repository:, PANC-1 pancreatic carcinoma (CRL-1469, RRID:CVCL_0480), OVCAR-5 ovarian carcinoma (RRID:CVCL_1628), OVCAR-8 ovarian carcinoma (RRID:CVCL_1629), , MCF-7 breast carcinoma (CRL-12584, RRID:CVCL_0031), MDA-MB-231 breast carcinoma (CRL-12532, RRID:CVCL_0062), NCI-H1876 small cell lung carcinoma (CRL-5902, RRID:CVCL_1503), NCI-H510A small cell lung carcinoma (HTB-184, RRID:CVCL_1565), NCI-H1417 (CRL-5869, RRID:CVCL_1469), and NCI-H196 small cell lung carcinoma (CRL-5823, RRID:CVCL_1509). Dr. Peter Houghton (Greehey Children's Cancer Research Institute, University of Texas Health Science Center, San Antonio, TX) provided Rh-18 rhabdomyosarcoma (RRID:CVCL_1659). Pooled donor human umbilical vein endothelial cells (HUVEC, Lonza, cat. CC-2519) and human mesenchymal stem cells (hMSC, Lonza, cat. PT-2501) were purchased from Lonza (Walkersville, MD).
Cell Culture. […]
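Also: spheroids exposed to agents for 7 days.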
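For viability, T/C in this document: 100% = DMSO vehicle control wells.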

SMILES: CNC(C)C(=O)NC1CN(S(=O)(=O)c2cccc(S(=O)(=O)N3CCC4CCC(C(=O)NC(c5ccccc5)c5ccccc5)N4C(=O)C(NC(=O)C(C)NC)C3)c2)CCC2CCC(C(=O)NC(c3ccccc3)c3ccccc3)N2C1=O (centres undefined)
- viability, T/C (compound 0.00316 µM): 93.8% and 103%
- viability, T/C (compound 0.1 µM): 104% [middle of 15 runs]
- IC50 (compound alone, run of 10/03/2022): > 1000 nM
- IC50 (curve of compound): > 1000 nM

SMILES: NC(=O)C(=Cn1cnc(-c2cc(C(F)(F)F)cc(C(F)(F)F)c2)n1)c1cncnc1 + CCN1C(C(=O)NC23CCC(C(=O)O)(CC2)CC3)C(c2cccc(Cl)c2F)C2(C(=O)Nc3cc(Cl)ccc32)C12CCCCC2
- IC50 (curve of first compound, second compound 0.03 µM): 70.4 nM
- IC50 (curve of first compound, second compound 0.0949 µM): 23.4 nM
- IC50 (curve of first compound, second compound 0.3 µM): 6.95 nM
- IC50 (curve of first compound, second compound 0.949 µM): < 0.949 nM
- IC50 (curve of first compound, second compound 3 µM): < 0.949 nM
- viability, T/C (second compound 0.03 µM, first compound 0.000949 µM): 111%
- viability, T/C (second compound 0.03 µM, first compound 0.003 µM): 113%
- viability, T/C (second compound 0.03 µM, first compound 0.00949 µM): 81.5%
- viability, T/C (second compound 0.03 µM, first compound 0.03 µM): 60.4%
- viability, T/C (second compound 0.03 µM, first compound 0.0949 µM): 56.3%
- viability, T/C (second compound 0.03 µM, first compound 0.3 µM): 5.86%
- viability, T/C (second compound 0.0949 µM, first compound 0.000949 µM): 109%
- viability, T/C (second compound 0.0949 µM, first compound 0.003 µM): 83.3%
- viability, T/C (second compound 0.0949 µM, first compound 0.00949 µM): 51.7%
- viability, T/C (second compound 0.0949 µM, first compound 0.03 µM): 48%
- viability, T/C (second compound 0.0949 µM, first compound 0.0949 µM): 46.1%
- viability, T/C (second compound 0.0949 µM, first compound 0.3 µM): 2.91%
- viability, T/C (second compound 0.3 µM, first compound 0.000949 µM): 65.2%
- viability, T/C (second compound 0.3 µM, first compound 0.003 µM): 58.8%
- viability, T/C (second compound 0.3 µM, first compound 0.00949 µM): 45.3%
- viability, T/C (second compound 0.3 µM, first compound 0.03 µM): 34.1%
- viability, T/C (second compound 0.3 µM, first compound 0.0949 µM): 14%
- viability, T/C (second compound 0.3 µM, first compound 0.3 µM): 0.39%
- viability, T/C (second compound 0.949 µM, first compound 0.000949 µM): 44.6%
- viability, T/C (second compound 0.949 µM, first compound 0.003 µM): 40.1%
- viability, T/C (second compound 0.949 µM, first compound 0.00949 µM): 25.3%
- viability, T/C (second compound 0.949 µM, first compound 0.03 µM): 7.03%
- viability, T/C (second compound 0.949 µM, first compound 0.0949 µM): 1.37%
- viability, T/C (second compound 0.949 µM, first compound 0.3 µM): 0.18%
- viability, T/C (second compound 3 µM, first compound 0.000949 µM): 24.1%
- viability, T/C (second compound 3 µM, first compound 0.003 µM): 20.6%
- viability, T/C (second compound 3 µM, first compound 0.00949 µM): 3.76%
- viability, T/C (second compound 3 µM, first compound 0.03 µM): 0.85%
- viability, T/C (second compound 3 µM, first compound 0.0949 µM): 0.44%
- viability, T/C (second compound 3 µM, first compound 0.3 µM): 0.84%

SMILES: NC1CCC(NC2CC2c2ccccc2)CC1 (centres undefined) + CNC(C)C(=O)NC1CN(S(=O)(=O)c2cccc(S(=O)(=O)N3CCC4CCC(C(=O)NC(c5ccccc5)c5ccccc5)N4C(=O)C(NC(=O)C(C)NC)C3)c2)CCC2CCC(C(=O)NC(c3ccccc3)c3ccccc3)N2C1=O
- IC50 (curve of first compound, second compound 0.01 µM): > 100 nM
- IC50 (curve of first compound, second compound 0.0316 µM): > 100 nM
- IC50 (curve of first compound, second compound 0.1 µM): > 100 nM
- IC50 (curve of first compound, second compound 0.316 µM): > 100 nM
- IC50 (curve of first compound, second compound 1 µM): > 100 nM
- viability, T/C (second compound 0.01 µM, first compound 0.000316 µM): 116%
- viability, T/C (second compound 0.01 µM, first compound 0.001 µM): 105%
- viability, T/C (second compound 0.01 µM, first compound 0.00316 µM): 109%
- viability, T/C (second compound 0.01 µM, first compound 0.01 µM): 101%
- viability, T/C (second compound 0.01 µM, first compound 0.0316 µM): 109%
- viability, T/C (second compound 0.01 µM, first compound 0.1 µM): 106%
- viability, T/C (second compound 0.0316 µM, first compound 0.000316 µM): 117%
- viability, T/C (second compound 0.0316 µM, first compound 0.001 µM): 120%
- viability, T/C (second compound 0.0316 µM, first compound 0.00316 µM): 111%
- viability, T/C (second compound 0.0316 µM, first compound 0.01 µM): 114%
- viability, T/C (second compound 0.0316 µM, first compound 0.0316 µM): 102%
- viability, T/C (second compound 0.0316 µM, first compound 0.1 µM): 91.7%
- viability, T/C (second compound 0.1 µM, first compound 0.000316 µM): 107%
- viability, T/C (second compound 0.1 µM, first compound 0.001 µM): 115%
- viability, T/C (second compound 0.1 µM, first compound 0.00316 µM): 121%
- viability, T/C (second compound 0.1 µM, first compound 0.01 µM): 111%
- viability, T/C (second compound 0.1 µM, first compound 0.0316 µM): 121%
- viability, T/C (second compound 0.1 µM, first compound 0.1 µM): 109%
- viability, T/C (second compound 0.316 µM, first compound 0.000316 µM): 121%
- viability, T/C (second compound 0.316 µM, first compound 0.001 µM): 144%
- viability, T/C (second compound 0.316 µM, first compound 0.00316 µM): 115%
- viability, T/C (second compound 0.316 µM, first compound 0.01 µM): 106%
- viability, T/C (second compound 0.316 µM, first compound 0.0316 µM): 111%
- viability, T/C (second compound 0.316 µM, first compound 0.1 µM): 125%
- viability, T/C (second compound 1 µM, first compound 0.000316 µM): 109%
- viability, T/C (second compound 1 µM, first compound 0.001 µM): 119%
- viability, T/C (second compound 1 µM, first compound 0.00316 µM): 125%
- viability, T/C (second compound 1 µM, first compound 0.01 µM): 109%
- viability, T/C (second compound 1 µM, first compound 0.0316 µM): 123%
- viability, T/C (second compound 1 µM, first compound 0.1 µM): 121%
